We go through two compounds from PMC11267547, “Advancing drug discovery through assay development: a survey of tool compounds within the human solute carrier superfamily” (Frontiers in Pharmacology, 2024).

Read-outs that look alike come from different tables or passages of the source.

The target of one test is T1, SLC23A1 (Homo sapiens, UniProt Q9UHI7).
T1 construct: expressed in transfected cells; host or cells: Jump In T-REx HEK293 (general cell-line paragraph)
Description: RESOLUTE assay on SLC23A1. The class given is cell-based. The conditions noted are these: Flipr Membrane Potential-Blue-Dye; read-out: pIC50 (act), SLC23A1 (converted). The protocol:
(§1) FLIPR Membrane Potential Blue Dye was used to detect the compound activities for those membrane transporters that are electrogenic or whose activity is associated with changes in membrane potential, as previously described ([Jensen and BräunerOsborne, 2004]). In brief, cells are seeded at cell line-specific density in black clear-bottom poly-D-Lysine-coated 384-well plates (Greiner Bio-One) in DMEM high-glucose medium with 10% FBS, 1% P/S, and 2 mM UltraGlutamine I (25 µL/well). Furthermore, 24 h after seeding, the culture medium is removed, and the cells are loaded with 20 µL/well of 0.5 X FMP Blue Dye in assay buffer (modified Tyrode’s buffer, 130 mM NaCl, 5 mM KCl, 1 mM MgCl2, 2 mM CaCl2, 5 mM NaHCO3, and 20 mM HEPES pH 7.4). The plates are subsequently incubated for at least 30 min at room temperature in the dark. Then, 10 µL/well of test compounds and controls is added at defined concentrations (0.5% DMSO final conc.) in the FLIPR TETRA instrument (Molecular Devices), and emitted fluorescence is recorded using a λexc 510–545-nm/λem 565–625-nm filter. The dose–response curves for the 19 compounds were prepared starting from 3 µM (final top concentration), the half-log serial dilution factor. For data analysis, Genedata Screener 19.0 software was used.
(§2) The robust Z prime factor (RZ’ factor) was calculated with the following formula: RZ^′=1−3∗RSDMAX+RSDMIN/AbsMAX − MIN, where the RZ’ factor is based on the same formula as the Z′ factor ([Zhang et al., 1999]) but standard deviations and means are replaced by the robust standard deviations and medians, respectively. Curve fitting profiles were performed on each dose–response curve with the analyzer module of Genedata Screener 19.0 on % activity.

Test [1] concerns the target T2, SLC1A1 (Homo sapiens, UniProt P43005).
T2 sequence (P43005 1-524): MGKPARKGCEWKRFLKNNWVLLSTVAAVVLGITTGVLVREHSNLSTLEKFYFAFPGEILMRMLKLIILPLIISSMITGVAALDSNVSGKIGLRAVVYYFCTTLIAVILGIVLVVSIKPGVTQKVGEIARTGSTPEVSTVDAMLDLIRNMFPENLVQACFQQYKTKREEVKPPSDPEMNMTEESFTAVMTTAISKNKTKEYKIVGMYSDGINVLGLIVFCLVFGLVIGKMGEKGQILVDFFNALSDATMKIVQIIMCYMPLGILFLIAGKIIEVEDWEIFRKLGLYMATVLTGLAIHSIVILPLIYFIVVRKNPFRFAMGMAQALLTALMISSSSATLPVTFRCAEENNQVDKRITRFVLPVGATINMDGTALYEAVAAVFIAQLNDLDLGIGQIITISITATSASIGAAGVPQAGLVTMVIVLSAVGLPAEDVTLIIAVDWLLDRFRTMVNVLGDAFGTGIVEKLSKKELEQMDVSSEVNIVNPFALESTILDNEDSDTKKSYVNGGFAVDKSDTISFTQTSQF
The conditions noted are these: cited from earlier work; for primary_SLC_act / SLCs_act: SLC1A1, known data from the KNIME workflow, ref ChEMBL.

Another test addresses T3, SLC6A8 (Homo sapiens, UniProt P48029).
T3 construct: expressed in transfected cells; host or cells: Jump In T-REx HEK293 (general cell-line paragraph)
T3 sequence (P48029 1-635): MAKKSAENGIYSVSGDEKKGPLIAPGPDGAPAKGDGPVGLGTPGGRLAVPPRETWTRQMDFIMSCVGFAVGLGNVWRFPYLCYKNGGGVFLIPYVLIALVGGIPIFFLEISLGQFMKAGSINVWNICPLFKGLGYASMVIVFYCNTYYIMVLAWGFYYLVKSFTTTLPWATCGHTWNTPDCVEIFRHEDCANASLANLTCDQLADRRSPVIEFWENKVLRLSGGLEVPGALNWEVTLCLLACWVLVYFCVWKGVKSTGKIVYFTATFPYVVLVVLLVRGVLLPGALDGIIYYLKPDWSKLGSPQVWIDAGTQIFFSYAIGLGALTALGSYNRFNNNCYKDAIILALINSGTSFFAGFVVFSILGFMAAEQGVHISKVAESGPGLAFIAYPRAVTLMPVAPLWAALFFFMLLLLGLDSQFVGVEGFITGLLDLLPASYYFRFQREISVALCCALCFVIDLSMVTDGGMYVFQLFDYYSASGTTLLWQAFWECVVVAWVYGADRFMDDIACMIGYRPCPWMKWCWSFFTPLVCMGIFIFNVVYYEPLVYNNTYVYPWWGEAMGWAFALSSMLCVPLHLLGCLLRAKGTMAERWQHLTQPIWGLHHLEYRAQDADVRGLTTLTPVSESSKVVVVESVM
Description: RESOLUTE assay on SLC6A8. It counts as cell-based. Conditions: target SLC6A8, Flipr Membrane Potential-Blue-Dye; read-out: pIC50 (act) (converted). The protocol:
as §1, §2

The next test addresses T4, SLC22A3 (OCT3) (Homo sapiens, UniProt O75751).
T4 construct: expressed in transfected cells; host or cells: Jump In T-REx HEK293
T4 sequence (O75751 1-556): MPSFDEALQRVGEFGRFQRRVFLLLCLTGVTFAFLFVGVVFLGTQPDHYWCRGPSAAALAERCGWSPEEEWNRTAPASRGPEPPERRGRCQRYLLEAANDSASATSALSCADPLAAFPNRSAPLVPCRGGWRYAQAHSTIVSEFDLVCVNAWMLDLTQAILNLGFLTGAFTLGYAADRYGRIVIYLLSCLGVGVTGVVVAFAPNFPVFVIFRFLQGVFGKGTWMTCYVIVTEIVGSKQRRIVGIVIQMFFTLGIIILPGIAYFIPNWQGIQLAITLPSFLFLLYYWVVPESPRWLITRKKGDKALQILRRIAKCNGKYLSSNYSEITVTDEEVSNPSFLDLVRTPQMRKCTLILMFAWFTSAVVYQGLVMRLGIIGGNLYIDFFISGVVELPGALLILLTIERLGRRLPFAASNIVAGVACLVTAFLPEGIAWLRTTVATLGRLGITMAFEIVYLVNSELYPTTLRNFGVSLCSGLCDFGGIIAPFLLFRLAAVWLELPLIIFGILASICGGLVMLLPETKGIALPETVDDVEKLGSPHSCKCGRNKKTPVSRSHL
Description: Impedance-based MPP+ transport assay, HEK293–JumpIn–OCT3 cells. The class given is cell-based. The conditions noted are these: phenotypic; read-out: pIC50 (act), SLC22A3 (converted).

A further test addresses T5, SLC7A3 (Homo sapiens, UniProt Q8WY07).
T5 construct: expressed in transfected cells; host or cells: Jump In T-REx HEK293 (general cell-line paragraph)
Description: RESOLUTE assay on SLC7A3. The class given is cell-based. Conditions: Flipr Membrane Potential-Blue-Dye; read-out: pIC50 (act), SLC7A3 (converted). On the procedure: as §1, §2

The target of the next test is SLC6A4 (Homo sapiens, UniProt P31645). Description: cell-based.
The target of test [2] is T2, SLC1A1. Description: Echo-MS assay, uptake of labeled glutamic acid in dox-induced HEK293–JumpIn–SLC1A1 (EAAT3) cells. Further details: expressed in transfected cells; host or cells: Jump In T-REx HEK293. The class given is cell-based.
Description: Before the Echo-MS experiment, 15,000 cells per well were seeded into the wells of a 384-well plate (Beckman Coulter) and induced with 1 μg/μL doxycycline. […] The next day, compounds with stock solutions of 10 mM were first diluted to a final concentration of 90 µM before starting a 10-stage dilution series with a dilution factor of 1:3 with the CyBio FeliX pipetting robot. After the supernatant in the plate of the cell plate assay was discarded (BlueWasher, BlueCatBio), 10 µL of potassium/wash buffer including the compound dilution series was transferred by the pipetting robot (FeliX, CyBio), yielding a highest final concentration of 30 µM compound per well. […] After 30 min on the shaker at 500 rpm, the plates were centrifuged for 20 min at 2,000 rpm. Finally, 40 µL/well was transferred on qualified 384-well plates and then measured with Echo-MS/ADE-MS (Sciex). ADE-MS measurements were performed on an ADE-MS device (Sciex) operated with Sciex OS software (version 2.1.6.59781). […] For all samples, an ejection volume of 5 nL (2 droplets) and a repetition rate of 2.5 s/well were used. Triple Quad 6500+ was operated in a positive mode using the following settings: vaporizer temperature 450°C, spray voltage 5500 V, ion source gas 1: 90 psi, ion source gas 2: 70 psi, curtain gas 20 psi, CAD gas 9 psi, dwell time 95 m, DP 35 V, EP 10 V, CE 14 V, and CXP 18 V. Data were processed with Sciex OS and further processed with Genedata Screener (version 19.0.9-Standard). Transporter inhibition by the compounds was tracked by analyzing the MS signal area values of uptaken labeled glutamic acid into the cell. The signal ratio of the reaction product to the respective standard was calculated to diminish variations ascribed to the sample preparation procedure or the MS readout. Average control values were calculated and set to 100% activity (high controls) and 0% activity (low controls), while the response values of compound-containing wells were normalized against the controls and expressed as the percentage of control (PoC).
Where [3] appears, read: target SLC1A1, assay EchoMS, read-out: pIC50 (act) (converted).

T5 sequence (Q8WY07 whole entry): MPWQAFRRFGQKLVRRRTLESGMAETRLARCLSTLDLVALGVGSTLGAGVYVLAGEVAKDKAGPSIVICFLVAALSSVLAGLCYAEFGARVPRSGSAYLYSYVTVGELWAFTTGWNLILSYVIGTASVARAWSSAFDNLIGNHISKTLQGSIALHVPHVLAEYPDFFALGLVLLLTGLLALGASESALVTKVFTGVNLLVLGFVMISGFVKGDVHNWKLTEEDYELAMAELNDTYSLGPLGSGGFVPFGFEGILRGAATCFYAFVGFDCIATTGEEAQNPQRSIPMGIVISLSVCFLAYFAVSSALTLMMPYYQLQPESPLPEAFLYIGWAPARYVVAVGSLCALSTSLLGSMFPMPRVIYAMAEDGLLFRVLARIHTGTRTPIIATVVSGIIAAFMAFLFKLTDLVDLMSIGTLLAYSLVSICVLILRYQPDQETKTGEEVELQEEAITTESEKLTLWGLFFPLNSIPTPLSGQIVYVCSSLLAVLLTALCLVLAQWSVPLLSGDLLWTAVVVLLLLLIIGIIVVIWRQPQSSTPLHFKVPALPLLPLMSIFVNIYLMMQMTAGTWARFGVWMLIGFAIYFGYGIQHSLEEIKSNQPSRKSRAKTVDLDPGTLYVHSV
Sequence of SLC6A4 (P31645 whole entry): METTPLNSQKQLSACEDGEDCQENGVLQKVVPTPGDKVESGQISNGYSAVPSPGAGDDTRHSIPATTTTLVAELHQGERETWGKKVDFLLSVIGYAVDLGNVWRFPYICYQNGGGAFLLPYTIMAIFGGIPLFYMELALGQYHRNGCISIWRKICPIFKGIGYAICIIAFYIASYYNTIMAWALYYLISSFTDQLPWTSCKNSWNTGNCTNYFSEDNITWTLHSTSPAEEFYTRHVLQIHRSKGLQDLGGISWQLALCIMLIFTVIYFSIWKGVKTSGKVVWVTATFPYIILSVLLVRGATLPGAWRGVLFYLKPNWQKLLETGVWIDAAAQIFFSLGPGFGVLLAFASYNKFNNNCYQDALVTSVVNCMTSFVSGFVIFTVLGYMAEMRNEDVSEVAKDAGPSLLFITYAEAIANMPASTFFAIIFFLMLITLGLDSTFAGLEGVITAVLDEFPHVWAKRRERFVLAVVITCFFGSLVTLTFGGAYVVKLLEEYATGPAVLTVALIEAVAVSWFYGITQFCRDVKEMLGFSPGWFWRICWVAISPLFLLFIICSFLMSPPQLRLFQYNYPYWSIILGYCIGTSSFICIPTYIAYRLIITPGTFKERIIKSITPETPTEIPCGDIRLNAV
T1 sequence (Q9UHI7 whole entry): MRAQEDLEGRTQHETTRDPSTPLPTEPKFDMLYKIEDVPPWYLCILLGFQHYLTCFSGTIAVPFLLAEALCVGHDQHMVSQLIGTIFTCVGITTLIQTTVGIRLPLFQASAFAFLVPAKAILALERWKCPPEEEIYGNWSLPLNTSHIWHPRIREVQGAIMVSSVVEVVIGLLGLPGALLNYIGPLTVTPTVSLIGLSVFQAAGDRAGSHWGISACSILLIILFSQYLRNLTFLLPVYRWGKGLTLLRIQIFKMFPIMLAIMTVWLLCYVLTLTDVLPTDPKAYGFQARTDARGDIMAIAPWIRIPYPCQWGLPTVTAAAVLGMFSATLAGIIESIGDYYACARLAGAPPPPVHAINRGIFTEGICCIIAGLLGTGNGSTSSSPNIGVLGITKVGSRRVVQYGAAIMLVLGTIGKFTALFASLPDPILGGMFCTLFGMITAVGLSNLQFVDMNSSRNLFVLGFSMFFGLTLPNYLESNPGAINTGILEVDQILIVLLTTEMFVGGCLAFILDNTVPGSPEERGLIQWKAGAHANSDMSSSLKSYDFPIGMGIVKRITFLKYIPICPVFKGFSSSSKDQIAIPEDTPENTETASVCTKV
Description for SLC22A3 (OCT3): In short, HEK293–JumpIn–OCT3 (SL22A3) cells were seeded (60.000 cells/well) on an E-plate with 1 μg/mL doxycycline and grown for 22 h using the xCELLigence real-time cell analyzer (RTCA) SP or MP system. […] Changes in cellular morphology were monitored for a total of 2 h.

For `NC(C(=O)O)C(OCc1ccccc1)C(=O)O` (stereo not drawn) [Threo-beta-benzyloxyaspartic acid, Threo-beta-Benzyloxyaspartic acid], the IC50 at SLC23A1 is over 3.16 µM; at SLC6A8, over 3.16 µM; on SLC22A3 (OCT3), over 10 µM; at SLC7A3 it was over 3.16 µM; at SLC6A4 it was over 10 µM; at SLC1A1 [2] (setting [3]) it was over 10 µM. Also, at SLC1A1 [1], the “primary_SLC_act / SLCs_act” value is 5.1.
Turning to `N[C@@H](CC(=O)Nc1ccc(Oc2cc(F)c(F)cc2Br)cc1)C(=O)O` [WAY-213613], the IC50 at SLC23A1 is over 3.16 µM; at SLC6A8, over 3.16 µM; at SLC22A3 (OCT3) it was over 10 µM; at SLC7A3, over 3.16 µM; on SLC6A4, over 10 µM; at SLC1A1 [2] (dox-induced HEK293–JumpIn–SLC1A1 cells, top conc. 30 µM, read-out: pIC50, SLC1A1, EchoMS (converted)) it was 3.16 µM. Also, the IC50 on SLC1A1 [2] (setting [3]) is 3.28 µM. Moreover, the “primary_SLC_act / SLCs_act” value at SLC1A1 [1] was 5.72. Moreover, at SLC1A1 [1] (median of reported IC50, Ki, EC50, Kd values (negative log molar), ref Supplementary Table S2), the “Literature median activity, SLC1A1” value is 5.7.
